Measurements as given in ChEMBL document CHEMBL1201862, “PubChem BioAssay data set” (2004).
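Assay format: 96-well plates, 48-hour exposure. GI50: concentration for 50% inhibition of growth.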 Active and inactive are the calls of the source. No stated cut-off is given here; in the data, active = GI50 up to about 1.1 µM and inactive = higher.

Key:
Assay in all cases: NCI-60 cell line screen, 48 h
SK-OV-3 = tested on: SK-OV-3
CCRF-CEM = tested on: CCRF-CEM
IGROV-1 = tested on: IGROV-1
OVCAR-3 = tested on: OVCAR-3
SNB-75 = tested on: SNB-75
SK-MEL-28 = tested on: SK-MEL-28
MDA-MB-231 = tested on: MDA-MB-231
HCT-116 = tested on: HCT-116
NCI/ADR-RES = tested on: NCI/ADR-RES
TK-10 = tested on: TK-10
HOP-92 = tested on: HOP-92
HOP-62 = tested on: HOP-62
NCI-H226 = tested on: NCI-H226
COLO 205 = tested on: COLO 205
HCC 2998 = tested on: HCC 2998
MDA-MB-435 = tested on: MDA-MB-435
OVCAR-4 = tested on: OVCAR-4
MDA-N = tested on: MDA-N
HCT-15 = tested on: HCT-15

Row | Structure (SMILES) | GI50 (SK-OV-3) | GI50 (CCRF-CEM) | GI50 (IGROV-1) | GI50 (OVCAR-3) | GI50 (SNB-75) | GI50 (SK-MEL-28) | GI50 (MDA-MB-231) | GI50 (HCT-116) | GI50 (NCI/ADR-RES) | GI50 (TK-10) | GI50 (HOP-92) | GI50 (HOP-62) | GI50 (NCI-H226) | GI50 (COLO 205) | GI50 (HCC 2998) | GI50 (MDA-MB-435) | GI50 (OVCAR-4) | GI50 (MDA-N) | GI50 (HCT-15) [µM]
1 | COc1ccc(-c2cc3c(nn2)-c2ccccc2C3=O)cc1 | > 10 µM (inactive) | 6.38 µM (inactive) | > 10 µM (inactive) | > 10 µM (inactive) | 0.845 µM (active) | > 10 µM (inactive) | > 10 µM (inactive) | 7.71 µM (inactive) | > 10 µM (inactive) | > 10 µM (inactive) | > 10 µM (inactive) | > 10 µM (inactive) | > 10 µM (inactive) | > 10 µM (inactive) | > 10 µM (inactive) | > 10 µM (inactive) | > 10 µM (inactive) | > 10 µM (inactive) | > 10
2 | Cc1[nH]c2ccccc2c1-c1cc(-c2cc(-c3c(C)[nH]c4ccccc34)on2)no1 | 77.6 µM (inactive) | 34.2 µM (inactive) | 56.8 µM (inactive) | 40.6 µM (inactive) | 18.2 µM (inactive) | > 100 µM (inactive) | > 100 µM (inactive) | 44.3 µM (inactive) | > 100 µM (inactive) | > 100 µM (inactive) | 83.8 µM (inactive) | 85.9 µM (inactive) | 98.4 µM (inactive) | 84.1 µM (inactive) | 61 µM (inactive) | 25.8 µM (inactive) | > 100 µM (inactive) | 21 µM (inactive) | 57.1
3 | C/C(=C\CO)CC[C@@H]1[C@@]2(C)CCCC(C)(C)[C@@H]2CC[C@@]1(C)O | 21.3 µM (inactive) | 20.4 µM (inactive) | 17 µM (inactive) | 13.9 µM (inactive) | 17.7 µM (inactive) | 22.3 µM (inactive) | 17.3 µM (inactive) | 22 µM (inactive) | 17.1 µM (inactive) | 17.5 µM (inactive) | 16.7 µM (inactive) | – | 18.5 µM (inactive) | 17.7 µM (inactive) | 16 µM (inactive) | 18.3 µM (inactive) | 17.3 µM (inactive) | 18.7 µM (inactive) | 17.3
4 | NC(=O)c1sc2nc3ccccc3n2c1N | 27.2 µM (inactive) | > 100 µM (inactive) | 51.5 µM (inactive) | > 100 µM (inactive) | 29.4 µM (inactive) | > 100 µM (inactive) | 24.9 µM (inactive) | 74.1 µM (inactive) | > 100 µM (inactive) | 42.7 µM (inactive) | 69.8 µM (inactive) | 32.8 µM (inactive) | > 100 µM (inactive) | > 100 µM (inactive) | 86.7 µM (inactive) | > 100 µM (inactive) | > 100 µM (inactive) | > 100 µM (inactive) | > 100
5 | Nc1nc(Cl)cc(NCC2(O)CC(CO)C2)n1 (stereo unspecified) | > 100 µM (inactive) | > 100 µM (inactive) | > 100 µM (inactive) | > 100 µM (inactive) | > 100 µM (inactive) | > 100 µM (inactive) | > 100 µM (inactive) | > 100 µM (inactive) | > 100 µM (inactive) | > 100 µM (inactive) | > 100 µM (inactive) | > 100 µM (inactive) | > 100 µM (inactive) | > 100 µM (inactive) | > 100 µM (inactive) | > 100 µM (inactive) | > 100 µM (inactive) | > 100 µM (inactive) | > 100
6 | C[C@]12CC[C@@H]3c4ccc(OC(=O)c5ccccc5)cc4CC[C@H]3[C@@H]1CC[C@@H]2Oc1c2ccccc2nc2ccccc12 | 20.7 µM (inactive) | 0.0161 µM (active) | 12.5 µM (inactive) | 7.66 µM (inactive) | 10 µM (inactive) | 12 µM (inactive) | 11.5 µM (inactive) | 7.8 µM (inactive) | 11.4 µM (inactive) | 17.2 µM (inactive) | 12.9 µM (inactive) | 8.17 µM (inactive) | 14.9 µM (inactive) | 15.1 µM (inactive) | 7.05 µM (inactive) | 5.46 µM (inactive) | 15.8 µM (inactive) | 3.53 µM (inactive) | 9.73
7 | CC1=C/C(=N\O)C(C(O)(C(F)(F)F)C(F)(F)F)C(C)(C)C1 (stereo unspecified) | > 10 µM (inactive) | > 10 µM (inactive) | > 10 µM (inactive) | > 10 µM (inactive) | 3.49 µM (inactive) | > 10 µM (inactive) | > 10 µM (inactive) | > 10 µM (inactive) | > 10 µM (inactive) | > 10 µM (inactive) | > 10 µM (inactive) | > 10 µM (inactive) | > 10 µM (inactive) | > 10 µM (inactive) | > 10 µM (inactive) | > 10 µM (inactive) | > 10 µM (inactive) | > 10 µM (inactive) | > 10
8 | Cc1ccc(NC(=O)c2cc(S(=O)(=O)N3CCNNC3=O)c(S)cc2Cl)cc1 | – | > 100 µM (inactive) | > 100 µM (inactive) | > 100 µM (inactive) | > 100 µM (inactive) | > 100 µM (inactive) | > 100 µM (inactive) | > 100 µM (inactive) | > 100 µM (inactive) | 93.8 µM (inactive) | 41.3 µM (inactive) | – | > 100 µM (inactive) | > 100 µM (inactive) | > 100 µM (inactive) | > 100 µM (inactive) | > 100 µM (inactive) | > 100 µM (inactive) | > 100
9 | COc1cc2c(cc1OCCCCN1C(=O)c3cccc4cccc(c34)C1=O)N=C[C@@H]1CCCN1C2=O | 9.48 µM (inactive) | 1.64 µM (inactive) | 2.07 µM (inactive) | 3.4 µM (inactive) | – | 11.7 µM (inactive) | 3.53 µM (inactive) | 3.59 µM (inactive) | 6.52 µM (inactive) | 2.47 µM (inactive) | 6.18 µM (inactive) | 7.73 µM (inactive) | 8.36 µM (inactive) | 2.72 µM (inactive) | 6.97 µM (inactive) | 3.83 µM (inactive) | 3.27 µM (inactive) | 2.31 µM (inactive) | 3.99
10 | Cc1cn(CCCCCCOC(=O)NC(CCCNC(=N)N)C(=O)O)c(=O)[nH]c1=O (stereo unspecified) | > 100 µM (inactive) | > 100 µM (inactive) | > 100 µM (inactive) | > 100 µM (inactive) | > 100 µM (inactive) | > 100 µM (inactive) | > 100 µM (inactive) | > 100 µM (inactive) | > 100 µM (inactive) | > 100 µM (inactive) | > 100 µM (inactive) | > 100 µM (inactive) | > 100 µM (inactive) | > 100 µM (inactive) | > 100 µM (inactive) | > 100 µM (inactive) | > 100 µM (inactive) | > 100 µM (inactive) | > 100
11 | COC1=C2CC(C)CC(OC)C(OC(=O)CCCN)C(C)/C=C(\C)C(OC(N)=O)C(OC)/C=C\C=C(/C)C(=O)NC(=CC1=O)C2=O (stereo unspecified) | 15.5 µM (inactive) | 0.766 µM (active) | 7.08 µM (inactive) | 3.2 µM (inactive) | 18.7 µM (inactive) | 8.61 µM (inactive) | 9.16 µM (inactive) | 3.98 µM (inactive) | 19.9 µM (inactive) | 7.16 µM (inactive) | 4.23 µM (inactive) | 17.3 µM (inactive) | 16.3 µM (inactive) | 0.431 µM (active) | 10.1 µM (inactive) | 2.97 µM (inactive) | 7 µM (inactive) | 4.33 µM (inactive) | 4.97
12 | COc1ccc(OC)c(C2CCc3c(cnc4nc(N)nc(N)c34)C2)c1 (stereo unspecified) | 16 µM (inactive) | – | 2.29 µM (inactive) | 15.5 µM (inactive) | – | 13.7 µM (inactive) | 12.2 µM (inactive) | 1.83 µM (inactive) | 55.3 µM (inactive) | 10.9 µM (inactive) | 13.2 µM (inactive) | 12.2 µM (inactive) | 24.9 µM (inactive) | 16.1 µM (inactive) | 12.3 µM (inactive) | 2.56 µM (inactive) | 10.2 µM (inactive) | 2.07 µM (inactive) | 5.42
13 | [O-][S+](c1ccccc1)C1CC2CC3(CCC21O)OCCO3 (stereo unspecified) | > 100 µM (inactive) | > 100 µM (inactive) | > 100 µM (inactive) | > 100 µM (inactive) | > 100 µM (inactive) | > 100 µM (inactive) | > 100 µM (inactive) | – | > 100 µM (inactive) | > 100 µM (inactive) | > 100 µM (inactive) | > 100 µM (inactive) | > 100 µM (inactive) | > 100 µM (inactive) | > 100 µM (inactive) | > 100 µM (inactive) | > 100 µM (inactive) | > 100 µM (inactive) | > 100
14 | CCOc1cc(/C=N\N(C)C)cc(/C=N\N(C)C)c1O | 29.4 µM (inactive) | 44.7 µM (inactive) | – | 31.7 µM (inactive) | 28.8 µM (inactive) | 35.4 µM (inactive) | 43.1 µM (inactive) | 90.6 µM (inactive) | 35.8 µM (inactive) | 69.2 µM (inactive) | 7.66 µM (inactive) | 50.8 µM (inactive) | 38.3 µM (inactive) | 18.7 µM (inactive) | 91.2 µM (inactive) | 32.5 µM (inactive) | > 100 µM (inactive) | 32.8 µM (inactive) | 35.2
15 | Cc1cc(S(=O)(=O)Nc2nc3ccccc3nc2-c2ccc(Cl)cc2)c(S)cc1Cl | 17.3 µM (inactive) | 21.7 µM (inactive) | 12.4 µM (inactive) | 16.3 µM (inactive) | – | 16.8 µM (inactive) | 24.5 µM (inactive) | 19.4 µM (inactive) | 19.4 µM (inactive) | 28.6 µM (inactive) | 20.4 µM (inactive) | 22.4 µM (inactive) | 23.1 µM (inactive) | 16.4 µM (inactive) | 15.7 µM (inactive) | 17.3 µM (inactive) | 14.6 µM (inactive) | 18 µM (inactive) | 20.1
